Paper PMC9902381, “Binding and functional structure-activity similarities of 4-substituted 2,5-dimethoxyphenyl isopropylamine analogues at 5-HT2A and 5-HT2B serotonin receptors” (Frontiers in Pharmacology, 2023)
Like-named read-outs stand apart in the source and are kept apart here.

Key:
5-HT2B receptor = test system: 5-HT2B receptor; parameters: method as in Huang et al. (2009); details: multiple functional assays; ref Huang et al. (2009); cited from earlier work
[1] = substituent constant; ref Hansch et al. 1973; cited from earlier work
human 5-HT2B receptors = test system: human 5-HT2B receptors; parameters: method as in Porter et al. (1999); details: CHO cells, intracellular calcium; ref Porter et al. (1999); cited from earlier work
human 5-HT2B = target: human 5-HT2B; parameters: method as in Nelson et al., 1999; details: human 5-HT2B vs [3H]5-HT; ref Nelson et al., 1999; cited from earlier work
human 5-HT2B receptor [2] = target: T1, human 5-HT2B receptor (Homo sapiens, UniProt P41595); experiment: 5-HT2B receptor functional activity (agonist) using Ca2+ mobilization assay in Flp-In T-REx 293 cells; format: cell-based; details: for Maximal 5-HT effect: maximal effect relative to 5-HT = 100%; for Emax: Flp-In-T-REx-293, read-out: Maximal 5-HT effect; for agonist effect at 5-HT2B receptors: highest concentration examined (10,000 nM)
T1 construct: host or cells: Flp-In T-REx 293 cells (HEK 293)
T1 sequence (P41595 whole entry): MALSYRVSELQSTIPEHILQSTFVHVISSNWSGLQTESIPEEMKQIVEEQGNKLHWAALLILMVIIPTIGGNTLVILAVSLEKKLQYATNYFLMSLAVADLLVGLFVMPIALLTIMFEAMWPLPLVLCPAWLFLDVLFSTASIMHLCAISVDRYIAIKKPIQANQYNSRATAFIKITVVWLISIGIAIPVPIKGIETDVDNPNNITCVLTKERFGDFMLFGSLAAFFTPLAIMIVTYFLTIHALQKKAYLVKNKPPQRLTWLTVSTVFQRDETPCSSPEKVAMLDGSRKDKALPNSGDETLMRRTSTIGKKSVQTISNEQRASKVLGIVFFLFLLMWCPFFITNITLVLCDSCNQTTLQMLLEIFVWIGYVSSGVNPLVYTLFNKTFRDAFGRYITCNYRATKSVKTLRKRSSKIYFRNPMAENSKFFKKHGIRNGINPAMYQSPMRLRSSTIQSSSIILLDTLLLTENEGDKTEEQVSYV

rat 5-HT2 = target: rat 5-HT2; parameters: method as in Seggel et al., 1990; details: rat brain 5-HT2 vs [3H]ketanserin; ref Seggel et al., 1990; cited from earlier work
human 5-HT2A = target: human 5-HT2A; parameters: method as in Nelson et al., 1999; details: cloned human 5-HT2A vs [125I]DOI; ref Nelson et al., 1999; cited from earlier work
human 5-HT2B receptor [3] = target: T1, human 5-HT2B receptor; experiment: 5-HT2B receptor antagonism of 10 nM 5-HT Ca2+ signal in Flp-In T-REx 293 cells; format: cell-based
Protocol: A stable cell line was generated expressing the human 5-HT2B receptor using the Flp-In T-REx system (Thermo Fisher) ([Younkin et al., 2016]; [Steele et al., 2021]). Briefly, 5-HT2B receptor coding plasmid was obtained from cDNA Resource Center (cat # HTR02B0000). The 5-HT2B receptor cDNA was subcloned into the pcDNA/FRT/TO expression plasmid, and was co-transfected with pOG44 plasmid (coding the Flp recombinase) in Flp-In T-REx 293 cells. Cells were selected using 100 μg/mL of hygromycin and resistant cells were expanded and stored in liquid N2 for later use. For experimentation, stable cell lines were plated in Matrigel-coated 96-well imaging plates in Dulbecco’s Modified Eagle Medium (DMEM) containing 10% fetal bovine serum (FBS) and 5% penicillin/streptomycin, and the medium was supplemented with doxycycline (1 μg/mL) to upregulate the expression of the receptor 3 days before the experiment. Then, cells were loaded with Fura 2-AM for 30 min in Ca^2+ imaging solution (IS) consistent of 130 NaCl, 4 KCl, 2 CaCl2, 1 MgCl2, 10 HEPES, 10 glucose (in mM, pH adjusted to 7.4). […] Three wells containing cells were analyzed for each concentration per experiment day. […] All data were processed used Fiji software by ImageJ2 which allowed manual selection of cells and measurement of fluorescence. […]

rat 5-HT2A = test system: rat 5-HT2A; parameters: method as in Seggel et al., 1990; Glennon 2017; details: ref Seggel et al., 1990; Glennon 2017; cited from earlier work
[4] = agonist potency, Ca2+ mobilization, Hill slope 1.0
[5] = agonist potency, Ca2+ mobilization, Hill slope 1.0, read-out: h5-HT2B EC50

Structure (SMILES)	5-HT2B receptor agonist action (5-HT2B receptor)	π (lipophilic character of 4-position substituent) [1]	σp (electronic character of 4-position substituent) [1]	% of the effect of 5-HT at human 5-HT2B (human 5-HT2B receptors)	h5-HT2B pKi (human 5-HT2B)	EC50 (human 5-HT2B receptor [2])	Maximal 5-HT effect (human 5-HT2B receptor [2])	r5-HT2 pKi (rat 5-HT2)	h5-HT2A pKi (human 5-HT2A)	h5-HT2B pEC50 ± SEM (human 5-HT2B receptor [2]; [4])	EC50 (human 5-HT2B receptor [2]; [5])	potency relative to R (−) enantiomer at 5-HT2B (human 5-HT2B receptor [2]; optical isomers of 2,5-DMA)	Emax (human 5-HT2B receptor [2])	action on the 5-HT-mediated response at 5-HT2B (human 5-HT2B receptor [3])	agonist effect at 5-HT2B receptors (human 5-HT2B receptor [2])	rat 5-HT2A functional action (rat 5-HT2A)
COc1cc(CC(C)N)c(OC)cc1I (stereo not shown) [1e]	potent 5-HT2B receptor agonist	1.12	0.18	65%	7.70	37.2 nM	71%	7.72								
COc1cc(OC)c(OC)cc1CC(C)N (stereo not shown) [1f]		-0.02	-0.27		6.51			5.90	7.24							
COc1ccc(OC)c(C[C@H](C)N)c1 [S (+)1a]							100%			6.32 ± 0.15	480 nM	about six times more potent				
COc1cc(CC(C)N)c(OC)cc1Cl (stereo not shown) [1c]		0.71	0.23		7.50			6.66	8.85							
COc1cc(CC(C)N)c(OC)cc1C#N (stereo not shown) [1i]		-0.57	0.66		6.11			5.62	7.34							
COc1cc([N+](=O)[O-])c(OC)cc1CC(C)N (stereo not shown) [1h]		-0.28	0.78		6.78	89 nM		6.52	8.26				77%			
COc1ccc(OC)c(C[C@@H](C)N)c1 (single isomer, unassigned) [R (−) enantiomer]							87%			5.49 ± 0.16	3240 nM					
COc1ccc(OC)c(CC(C)N)c1 (stereo not shown) [1a, 1-(2,5-dimethoxyphenyl)isopropylamine]			0		5.98	3390 nM		5.28	6.68				93%			
COc1cc(CC(C)N)c(OC)cc1Br (stereo not shown) [1d]		0.86	0.23	69%	7.53	8.7 nM			9.22				70%			
COc1cc(CC(C)N)c(OC)cc1F (stereo not shown) [1b]		0.14	0.06		6.64	439 nM		5.96	7.38				82%			
COc1cc(CC(C)N)c(OC)cc1Cc1ccccc1 (stereo not shown) [1m]		2.01	-0.09		7.64	> 10000 nM		8.15	9.40				0%	behaved as antagonists	failed to produce an agonist effect	lack rat 5-HT2A agonist action and behave as antagonists
COc1cc(C(C)(C)C)c(OC)cc1CC(C)N (stereo not shown) [1l]		1.98	-0.20		7.61	37.2 nM		7.72	8.43				69%			
CCOc1cc(OC)c(CC(C)N)cc1OC (stereo not shown) [1g]		0.38	-0.24		6.12	557 nM		5.66	7.14				70%			
CCCc1cc(OC)c(CC(C)N)cc1OC (stereo not shown) [1j]		1.55	-0.13			55 nM	75%	7.16	9.05							
CCCCCCc1cc(OC)c(CC(C)N)cc1OC (stereo not shown) [1k]		3.05	-0.13		7.52	> 10000 nM	0%	8.60	10.00					behaved as antagonists	failed to produce an agonist effect	lack rat 5-HT2A agonist action and behave as antagonists
